Source: publication PMC4718634, “Murine GPRC6A Mediates Cellular Responses to L-Amino Acids, but Not Osteocalcin Variants” (PLoS ONE, 2016)
“Also recorded” adds a separate entry of the source. Ends that are not written are not given here.

Experiments:
mGPRC6A (mouse GPRC6A) = biological target: T1, mGPRC6A (mouse GPRC6A) (Mus musculus, UniProt Q8K4Z6); experiment: Label-free cell impedance (xCELLigence), tetracycline-induced FlpIn-TREx-HEK293-mGPRC6A cells; format: cell-based; details: tetracycline-induced; xCELLigence; Fig 4
T1 sequence (Q8K4Z6 21-928): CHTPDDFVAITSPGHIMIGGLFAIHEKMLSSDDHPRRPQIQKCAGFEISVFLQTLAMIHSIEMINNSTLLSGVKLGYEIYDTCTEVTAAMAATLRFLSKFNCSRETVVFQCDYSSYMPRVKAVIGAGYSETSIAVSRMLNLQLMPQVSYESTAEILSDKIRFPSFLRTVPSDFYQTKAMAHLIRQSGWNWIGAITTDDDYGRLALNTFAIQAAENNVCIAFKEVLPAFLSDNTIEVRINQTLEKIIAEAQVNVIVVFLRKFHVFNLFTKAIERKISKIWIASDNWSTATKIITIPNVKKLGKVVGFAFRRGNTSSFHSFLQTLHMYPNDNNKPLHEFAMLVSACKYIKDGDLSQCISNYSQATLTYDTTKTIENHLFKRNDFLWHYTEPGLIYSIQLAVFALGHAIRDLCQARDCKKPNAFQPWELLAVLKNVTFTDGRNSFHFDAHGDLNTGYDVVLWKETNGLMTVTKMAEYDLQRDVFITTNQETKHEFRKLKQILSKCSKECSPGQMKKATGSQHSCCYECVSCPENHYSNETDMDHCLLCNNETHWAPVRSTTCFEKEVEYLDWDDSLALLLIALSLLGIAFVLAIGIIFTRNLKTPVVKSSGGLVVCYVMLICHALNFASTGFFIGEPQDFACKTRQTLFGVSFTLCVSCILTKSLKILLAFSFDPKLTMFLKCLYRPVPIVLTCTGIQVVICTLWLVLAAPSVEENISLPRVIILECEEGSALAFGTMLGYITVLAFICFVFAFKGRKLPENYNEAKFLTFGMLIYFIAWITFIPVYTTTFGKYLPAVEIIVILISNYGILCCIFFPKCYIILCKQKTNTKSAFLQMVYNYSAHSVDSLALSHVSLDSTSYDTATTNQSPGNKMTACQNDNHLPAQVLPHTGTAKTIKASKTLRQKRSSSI
Experimental: (§1) 2.5 x 10^7 FlpIn-TREx-HEK293-mGPRC6A cells were seeded in a T175 flask and incubated overnight at 37°C in 5% CO2. Cells were then transfected with 35 μg of plasmid DNA (GαqG66D) with Lipofectamine LTX according to manufacturer's instructions, then incubated for 24h at 37°C in 5% CO2. Prior to the experiment, a background reading for each E-plate 96 (Bio-Rad, CA, USA) was measured after addition of 100 μl DMEM + 10% FBS per well. Cells were recovered using Versene and seeded at a 10^5 cells/well density in 200 μl DMEM + 10% FBS (containing 1 μg/ml tetracycline where indicated). Cells were washed 2 x 2 h in HBSS buffer (pH 7.2) containing 20 mM HEPES, 1 mM CaCl2 and 0.1% BSA (w/v) in a total volume of 180 μl. Test compounds (20 μl at 10x final concentration) were added to the plate and cell impedance was monitored for 3 h. Cell index was normalised to the buffer response (minus the baseline response at zero time point).
(§2) Concentration-response data were analysed using a three or four parameter logistic function (Motulsky & Christopoulos, 2004) to generate estimates of agonist potency (LogEC50). Data for all HEK293 assays represent the mean ± SEM of at least three independent experiments (except cell impedance, n = 2). For GLP-1 release, the data represent mean ± SEM of three to five independent experiments (except for OCN, wash; n = 2). For insulin release assays, data represent the mean ± SEM of three independent experiments (except for islet studies; n = 2). Insulin release data were normalised to the response to vehicle in either low or high [glucose]. Statistical analysis for GLP-1 release data were performed by one-way ANOVA, followed by Sidak’s multiple comparisons test (treating wash / no wash datasets separately). Statistical analyses for insulin release data were performed by two-way ANOVA (with [glucose] and drug treatment as group variables), followed by Sidak’s multiple comparisons test. Where only high [glucose] groups were evaluated, statistical analysis was by one-way ANOVA followed by Sidak’s multiple comparisons test.

[1] = tested on: un-induced FlpIn-TREx-HEK293-mGPRC6A cells; experiment: Label-free cell impedance, un-induced FlpIn-TREx-HEK293-mGPRC6A cells; format: cell-based; details: Fig 4
Experimental: as §1

MIN6 cells = experiment: Insulin release from MIN6 cells; format: cell-based, murine; details: 16.7 mM glucose; P < 0.0001, two-way ANOVA; Fig 6B
Experimental: (§3) MIN6 or βTC-6 cells were seeded in 24-well plates at 170,000 cells per well in DMEM (containing 4.5g/L glucose, 10 mM HEPES, 100 U/ml penicillin, 100 μg/ml streptomycin and 15% de-complemented FBS) and incubated at 37°C / 5% CO2 for 72 h. Cells were then washed with 500 μl PBS and incubated in 500 μl deprivation media (DMEM with zero glucose, 10 mM HEPES, 1 mM Na-pyruvate, 100 U/ml penicillin, 100 μg/ml streptomycin, 15% de-complemented FBS) for 2 h at 37°C. Media was aspirated and after washing with 500 μl PBS, cells were treated with 250 μl of Krebs buffer (250 mM NaCl, 5.9 mM KCl, 1.2 mM MgCl2, 1.3 mM CaCl2, 25 mM HEPES, 0.1% BSA (w/v), and 2 mM or 16.7 mM glucose; pH 7.4) in the presence or absence of test compound. After incubation for 2 h at 37°C, the assay was terminated by placing the plates on ice and supernatants were transferred to a 96-well plate in preparation for insulin ELISA (Alpco) following manufacturer’s instructions. The cell monolayer was washed twice with 500 μl of PBS and then lysed using 250 μl of 1 N NaOH prior to protein measurement by the method of Bradford (1976).
as §2

β-TC6 cells = experiment: Insulin release from β-TC6 cells; format: cell-based, murine; details: P < 0.001, P < 0.0001, two-way ANOVA, S3 Fig A
Experimental: as §3, §2

mouse pancreatic islets = experiment: Insulin release from mouse pancreatic islets; format: cell-based; details: n = 2; P < 0.001, P < 0.0001; S3 Fig B
Experimental: Islets were collagenase-isolated from mice (10 x C57Bl/6; 12–13 weeks; Charles River) and incubated overnight in RPMI (with 10% FBS (v/v), 10 mM HEPES, 100 U/ml penicillin, 100 μg/ml streptomycin, sodium pyruvate and 10 mM glucose) at 37°C in 5% CO2. Islets were seeded into a 96-well plate (4 / well) in Kreb’s buffer containing 2.8 mM glucose and washed twice with the same buffer. 200 μl test drugs were added in Kreb’s buffer with the required concentration of glucose and incubated at 37°C in 5% CO2 for 90 min. The plate was centrifuged for 10 s at 200 g, supernatant recovered and insulin levels detected as described above. This protocol was approved by the IDRS (Institut de Recherches Servier) Institutional Animal Care and Use Committee.
as §2

INS-1(832) cells = experiment: Label-free cell impedance, INS-1(832) cells; format: cell-based, rat; details: Gprc6a-negative, EBSS, 2.8 mM glucose, Fig 7, two-way ANOVA, *P < 0.05, **P < 0.01 vs Vehicle
Experimental: For INS-1 cells, 100 μl of medium (RPMI 1640 no glucose, 10% FBS, 55 μM β-mercaptoethanol, 1 mM sodium pyruvate, 10 mM HEPES, 100 U/ml penicillin, 100 μg/ml streptomycin, 11.1 mM glucose) was added per well to an E-plate 96 and a background reading taken. Cells were seeded at 2 x 10^4 / well and the plates incubated in the instrument for 48 h. On the day of the experiment, media was changed to EBSS buffer (180 μl; 2.8 mM glucose, 1.8 mM CaCl2, 5.3 mM KCl, 0.8 mM MgSO4, 117 mM NaCl, 26 mM NaHCO3, 1 mM NaH2PO4). After 2 h incubation, cells were stimulated with 20 μl test compound (10 x final) prepared in the same buffer. Data capture and analysis were as for HEK293 cells.

22RV1 / PC-3 = details: endogenous; ref [9] (supplement list); cited from earlier work
Source text: (§4) Supplement pone.0146846.s004.docx, table 1 | column: Functional assay

hC6A = details: ref [9] (supplement list); cited from earlier work
Source text: as §4

Nc1ncnc2c1ncn2[C@@H]1O[C@H](COP(=O)(O)OP(=O)(O)OP(=O)(O)O)[C@@H](O)[C@H]1O [ATP]
cell impedance (cell index) response (mGPRC6A (mouse GPRC6A)): concentration-dependent increase in cell index; also recorded: increases cellular impedance | cell impedance (cell index) response [1]: concentration-dependent increase in cell index; also recorded: increases cellular impedance

OC[C@H]1OC(O)[C@H](O)[C@@H](O)[C@@H]1O (stereo partly drawn) [glucose]
insulin secretion, glucose effect (MIN6 cells): significantly promoted insulin secretion; also recorded: significantly enhanced insulin secretion | insulin secretion, glucose effect (β-TC6 cells): released insulin in a glucose-sensitive manner | insulin secretion, glucose effect (β-TC6 cells; listed as Glucose): significantly enhanced insulin secretion | insulin secretion, glucose effect (mouse pancreatic islets): released insulin in a glucose-sensitive manner; also recorded: significantly enhanced insulin secretion

Bovine OCN: Purified bovine osteocalcin from bone (Meridian Life Science), carboxylated / under-carboxylated (YLDHWLGAPAPYPDPLEPKREVCELNPDCDELADHIGFQEAYRRFYGPV; ends and bridges not checked; also: γ-carboxyglutamic acid residues, partially carboxylated)
cell impedance (cell index) response (mGPRC6A (mouse GPRC6A)): did not change cell impedance | cell impedance (cell index) response [1]: did not change cell impedance | change in cell impedance (cell index) (INS-1(832) cells): significant, concentration-dependent activity | change in cell impedance (cell index) (INS-1(832) cells; listed as purified bovine OCN): significant changes in cell impedance; also recorded: Concentration-dependent increases in cell index

[Cl-].[Cl-].[Zn+2] [ZnCl2]
pERK1/2 response (22RV1 / PC-3): pERK1/2 – response to Ca^2+, ZnCl2, OCN, Arginine, Testosterone-BSA Proliferation – response to Ca^2+, OCN PSA, Runx2 expression – response to OCN, Arg, R1881 Chemotaxis (22RV1) – response to Ca^2+, OCN | pERK1/2 response (hC6A): pERK1/2 – response to Ca^2+, ZnCl2, OCN, Arginine, Testosterone-BSA
